Assay results published in patent US20060287251A1, “Combination therapy for glycaemic control” (priority 2003, published 2006).

Tested on: diabetic Zucker (fa/fa) rats
Test: Glutaminyl thiazolidine and Metformin alone or in combination, glycemic control in diabetic Zucker (fa/fa) rats
Assay type: in vivo, rat
Experimental: Ten or eleven weeks old male Zucker (fa/fa) rats were purchased from Charles River (Sulzfeld, Germany). Animals were kept under standardized semi-barrier conditions with controlled temperature (22±2° C.) on a 12/12 hours light/dark cycle (light on at 06:00 a.m.). Standard pelleted chow (ssniff®, Soest, Germany) and tap water acidified with HCl were allowed ad libitum. At the age of 12 weeks the animals (N=42) were divided in random order into six experimental groups to be medicated. Definition of the Experimental Groups for the Medications (GT=glutaminyl thiazolidine):
The single or combined doses per kg b.w. were solved in 5 mL dist. water for oral administration.
The study was started with the 12 to 13 weeks old Zucker (fa/fa) rats. At the beginning of the study an OGTT was performed (2 g glucose/kg body weight (b.w.); administration volume: 5 mL/kg of a 40% solution; B. Braun Melsungen, Melsungen, Germany) after a 16 h fast. […] Dosing was performed at t=5 min before OGTT by gavage.
Blood samples were taken from tail veins to measure blood glucose and serum insulin at −15, ±0 min, 15, 30, 60, 90, 120 and 180 min (the latter time without insulin samples) with respect to time of glucose administration.
After the first OGTT the animals in the groups were dosed twice daily with the respective drugs at 08:00 AM and at 04:00 PM, respectively:
During the two weeks of medication morning blood glucose was measured before the 08:00 AM medication at Monday, Wednesday and Friday.
Food intake was determined every day during the time of medication.
All the animals were weighted three times per week at 7:30 AM.
A second OGTT was performed after two weeks of medication (Day 15). The food was withdrawn at 04:00 PM the day before (16 h fast). The OGTT was performed with pre-medication at −5 min and oral glucose loading at ±0 min. Blood samples were taken from tail veins to measure blood glucose, and serum insuline at −15, ±0 min, 15, 30, 60, 90, 120 and 180 min (the latter time without insulin samples).
Glycated hemoglobin was measured before (Day −7) and on Day 18.
Glucose-For determination of glucose 20 μL blood were collected at −15, ±0 min (before OGTT) and 15, 30, 60, 90, 120 and 180 min post OGTT.
Insulin-Insulin concentrations were assayed by the antibody RIA method (Linco Research, Inc. St. Charles, Mo., USA).
Glycated haemoglobin-Percentage of glycated hemoglobin A (HbA1c) was estimated with the “DCA 2000R Hämoglobin A1c-Reagenz kit”(Bayer Vital GmbH, Fernwald, Germany).
The body weight was measured using a platform balance (Scaltec, Heiligenstadt, Germany).
Mixed venous blood samples from the tails were collected into 20 μL glass capillaries, which were placed in standard tubes filled with 1 ml solution for hemolysis (blood glucose measurement) and in sample tubes for serum insulin (50 μL blood).
Raw data of glucose analysis were provided by IDK to probiodrug in Excel format as soon as possible. Data for each drug and each parameter (glucose, insulin) were summarized by descriptive statistics (mean, SEM). […] Changes from baseline were calculated and summarized by descriptive statistic.

NC(=O)CC[C@H](N)C(=O)N1CCSC1 [glutaminyl thiazolidine]
reactive and absolute G-AUC (GT 60 mg/kg b.w. and/or Metformin 125 mg/kg b.w. (Met-low), b.i.d. oral, p<0.05 vs. Control): significantly reduced | glucose tolerance curve in the OGTT (GT 60 mg/kg b.w. and/or Metformin 125 mg/kg b.w. (Met-low), b.i.d. oral, vs. Control): significantly improved glucose tolerance curves | glucose tolerance (subchronic (18 days) b.i.d. administration, diabetic fatty Zucker rats (fa/fa)): improved glucose tolerance
